In paper PMC11546339, “Conformational Plasticity Enhances the Brain Penetration of a Metabolically Stable, Dual-Functional Opioid-Peptide CycloAnt” (International Journal of Molecular Sciences, 2024):
Where a SMILES comes first, the peptide text is derived from it. Bridges are numbered along the chain shown (N, C = ends). [ ]: non-standard residue; d: D form. 2Abz = Nc1ccccc1C(=O)O; Dap = NC[C@H](N)C(=O)O

Columns and labels:
rat MOR = target: T1, rat MOR (Rattus norvegicus, UniProt P33535); experiment: Opioid receptor radioligand binding assay ([3H]diprenorphine), MOR; details: CHO cell membranes, read-out: binding affinity (Ki) at MOR
T1 construct: expressed in transfected cells
T1 sequence (P33535 whole entry): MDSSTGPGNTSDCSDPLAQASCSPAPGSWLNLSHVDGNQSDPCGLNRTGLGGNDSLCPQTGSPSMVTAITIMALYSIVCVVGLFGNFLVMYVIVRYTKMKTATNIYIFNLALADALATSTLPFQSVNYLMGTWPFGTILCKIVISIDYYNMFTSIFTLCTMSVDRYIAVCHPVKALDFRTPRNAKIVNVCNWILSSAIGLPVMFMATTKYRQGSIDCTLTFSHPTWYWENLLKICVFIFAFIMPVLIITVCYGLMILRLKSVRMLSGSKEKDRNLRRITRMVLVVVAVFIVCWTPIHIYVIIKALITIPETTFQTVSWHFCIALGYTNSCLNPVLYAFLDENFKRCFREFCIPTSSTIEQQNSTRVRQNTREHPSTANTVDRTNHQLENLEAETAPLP
Procedure: (§1) CycloAnt is a lariat peptide that acts in vivo as a bifunctional MOR agonist and DOR antagonist, which was confirmed in our previous study using opioid receptor individually knock-out (OP KO) mice. In the current study, the binding affinities of CycloAnt to the three opioid receptors are determined using cell-based radioligand opioid receptor binding assays. […] At the KOR, CycloAnt at 1 μM inhibits 6% and at 10 μM inhibits 26% of [^3H]diprenorphine binding.
(§2) Opioid receptor radioligand binding assay. Membranes of CHO cells stably expressing the rat MOR, mouse DOR, or human KOR were used in the experiments. [^3H]diprenorphine (PerkinElmer, Waltham, MA, at the time of experiment calculated to have specific activity 35 Ci/mmol) was used as the radioligand for the MOR, DOR, and KOR. Competition inhibition of [^3H]diprenorphine (0.3–0.4 nM) binding to the MOR or DOR was conducted in 50 mM Tris-HCl buffer (pH 7.4) with an adequate number of cell membranes for each receptor and […] of CycloAnt. […] Binding reactions were terminated by rapid filtration under vacuum over GF/B filters presoaked in 0.1% polyethyleneimine, and the bound radioactivity was counted by liquid scintillation counting. […] Binding data were analyzed using GraphPad Prism software (version 10.2.3) and IC50 values (the concentration necessary to inhibit 50 percent of radioligand binding) and Ki values were calculated. […]

mouse DOR = target: T2, mouse DOR (Mus musculus, UniProt P32300); experiment: Opioid receptor radioligand binding assay ([3H]diprenorphine), DOR; details: CHO cell membranes, read-out: binding affinity (Ki) at DOR
T2 construct: expressed in transfected cells
T2 sequence (P32300 whole entry): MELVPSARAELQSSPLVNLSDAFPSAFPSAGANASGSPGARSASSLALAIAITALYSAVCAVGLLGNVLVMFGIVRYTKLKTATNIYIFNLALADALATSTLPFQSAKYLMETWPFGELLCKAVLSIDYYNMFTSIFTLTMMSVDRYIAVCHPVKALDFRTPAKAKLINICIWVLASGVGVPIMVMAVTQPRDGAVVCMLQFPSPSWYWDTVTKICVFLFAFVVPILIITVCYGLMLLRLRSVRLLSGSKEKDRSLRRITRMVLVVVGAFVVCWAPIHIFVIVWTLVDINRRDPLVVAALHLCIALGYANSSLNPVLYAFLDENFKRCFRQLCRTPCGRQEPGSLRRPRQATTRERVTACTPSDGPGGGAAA
Procedure: as §1, §2

Stability in mouse serum = format: in vitro ADME; details: 37 °C, read-out: percentage of CycloAnt remaining in mouse serum
Procedure: Proteolytic instability is a major hurdle limiting the development of peptide drug. As blood is a major source of proteases that degrade peptides, we evaluated the stability of CycloAnt in mouse serum. CycloAnt at a final concentration of 20 µM was incubated with mouse serum (SigmaAldrich) at 37 °C for 8 h. At 0, 15, 30, 60, 120, 240, and 480 min, the incubation was terminated by adding 2 volumes of ice-cold acetonitrile to precipitate the proteins in the sample. After centrifugation at 10,000 rpm, supernatant was collected. The processed sample was analyzed by liquid chromatography tandem mass spectrometry (LC-MS/MS). The percentage of CycloAnt remaining at each time point was calculated (Figure 1).
Stability in mouse serum. CycloAnt was dissolved in pH 7.2 phosphate buffer saline (PBS). A total of 175 µL of CycloAnt at a final concentration of 20 µM was mixed with 2.625 mL of 100% mouse serum (SigmaAldrich) and incubated at 37 °C. The mixture was analyzed over a time course of 8 h. At the time points of 0, 15, 30, 60, 120, 240, and 480 min, 150 µL of sample were withdrawal and the reaction was terminated with 300 μL of ice-cold acetonitrile containing internal standard (IS, Tyr-[D-Lys-Phe-Tyr-Gly] at 200 ng/mL). The mixture was centrifuged at 10,000 rpm at 4 °C for 10 min. […] The percentage of peptide remaining at each time point was calculated relative to 0 min. […]

[1] = LC-MS/MS search for metabolites in mouse plasma after i.p. administration; format: in vivo; details: mouse plasma 15 min after 10 mg/kg i.p.; from m/z intensity
Procedure: To verify if CycloAnt could be metabolized in vivo, we looked for the possible metabolites (Scheme S1) in a blood sample collected from mice 15 min after i.p. administration of CycloAnt at a dose of 10 mg/kg. The proteins in the mouse plasma were precipitated by ice-cold acetonitrile containing internal standard. Following centrifugation, the supernatant was collected, and analyzed by LC-MS/MS. A total ion current (TIC) scan was conducted for the mass-to-charge ratio (m/z) in the range of 300–1500 for all ions, followed by the targeted narrow range scans. The scans in the range of 650–690 and 325–346 are aimed at detecting the potential [M + 1]^+ and [M + 2]^2+ ions from the Phase I metabolites, the enzymatically cleaved peptides, and intact CycloAnt, respectively (Figure S1 and Figure 2); and the scans in the range of 843–852 and 422–428 are for detecting the potential [M + 1]^+ and [M + 2]^2+ ions from the Phase II glucuronidation, respectively (Figure S3). The [M + 1]^+ and [M + 2]^2+ ions were then extracted from the narrow range scans for the potential enzymatically cleaved products (Figure S1), the Phase I metabolites (Figure S2), and the Phase II UGT metabolites (Figure S3). The relative abundance of the tallest peak was assigned as 100. […]

C[C@@H](O)[C@@H]1NC(=O)[C@H](CNC(=O)c2ccccc2N)NC(=O)[C@H](NC(=O)[C@@H](N)Cc2ccc(O)cc2)CCCCNC(=O)CNC1=O [CycloAnt] (H-Y[dK][Dap](2Abz)TG; lactam 2-C)
Ki (rat MOR): 2.25 ± 0.44 nM
Ki (mouse DOR): 7.85 ± 0.77 nM
remaining at 8 h, 20 µM (Stability in mouse serum): 82.3%
concentration of any metabolites relative to CycloAnt in plasma (fold lower) [1]: 10^3- to-10^4 fold
